From ChEMBL document CHEMBL1201862, “PubChem BioAssay data set” (2004)
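Five compound concentrations were applied to cells in 96-well plates for 48 hours; endpoints were derived by simple linear interpolation of the resulting dose-response curve. GI50 is the concentration that inhibits growth by half.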 Calls of active or inactive are those of the source. Rule as the data show it: active = GI50 up to about 1.1 µM and inactive = higher.

Tests used:
Experiment in all cases: NCI anticancer screen, dose series, 48 h
[1] = system: A498
[2] = system: A549
[3] = system: CCRF-CEM
[4] = system: HCC 2998
[5] = system: HL-60
[6] = system: Malme-3M
[7] = system: OVCAR-8
[8] = system: SF-539
[9] = system: SK-OV-3
[10] = system: SNB-19
[11] = system: SR
[12] = system: TK-10
[13] = system: UACC-62
[14] = system: HOP-92
[15] = system: RXF 393

Measured: GI50

COc1cc2oc(-c3ccc(O)cc3)cc(=O)c2c(O)c1C1OC(CO)C(O)C(O)C1O (stereo not drawn)
inactive: [1] > 100 µM | [2] > 100 µM | [3] > 100 µM | [4] > 100 µM | [5] > 100 µM | [6] > 100 µM | [7] > 100 µM | [8] > 100 µM | [9] > 100 µM | [10] > 100 µM | [11] > 100 µM | [12] > 100 µM | [13] > 100 µM

N#CCC(=O)N/N=C1/C(=O)N(c2ccc(Cl)cc2)C(=O)C(=O)C1c1nc2ccccc2s1 (stereo not drawn)
inactive: [1] > 100 µM | [2] > 100 µM | [4] > 100 µM | [14] 28.2 µM | [6] > 100 µM | [7] 95.9 µM | [15] 25.8 µM | [9] > 100 µM | [10] > 100 µM | [12] > 100 µM | [13] 60.3 µM

OCc1ccccc1C1CSCSC1
inactive: [2] > 100 µM | [3] > 100 µM | [5] > 100 µM | [6] > 100 µM | [7] > 100 µM | [15] > 100 µM | [8] > 100 µM | [9] > 100 µM | [12] > 100 µM | [13] > 100 µM

Cc1ccc(C2NC(=O)c3ccccc3N2)s1 (stereo not drawn)
inactive: [1] 6.78 µM | [2] 8.83 µM | [3] 3.27 µM | [4] 7.05 µM | [5] 2.92 µM | [6] 4.8 µM | [7] 8.43 µM | [15] 5.86 µM | [8] 3.28 µM | [9] 5.4 µM | [10] 59.6 µM | [11] 8.3 µM | [12] > 100 µM | [13] 5.51 µM

CC1=C(C(=O)Nc2ccccc2)C(c2ccc3c(c2)OCO3)C(C(=O)Nc2ccccc2)=C(C)N1
inactive: [1] 19.5 µM | [2] 49.5 µM | [3] 15.2 µM | [4] 44.6 µM | [5] 18.1 µM | [6] 62.1 µM | [7] 37.9 µM | [15] 11.1 µM | [8] 26.5 µM | [9] 47.3 µM | [10] 25.7 µM | [12] 59.7 µM | [13] 30.1 µM

CCOC(=O)C1(Cc2ccc3ccccc3c2)CCCCC(=O)N1 (stereo not drawn)
inactive: [2] 39.1 µM | [3] 23.3 µM | [4] 8.67 µM | [5] 12.1 µM | [14] 13.1 µM | [6] 11.9 µM | [7] 55.5 µM | [15] > 100 µM | [9] 76 µM | [10] 36.5 µM | [12] 56.1 µM | [13] 36.1 µM
